Assay results from US8501783B2, “Conformationally restricted urea inhibitors of soluble epoxide hydrolase” (The Regents of the University of California, priority 2006, dated 2013).
Several values for one entry are separate records, joined by “and”; a condition that tells them apart may be missing. Identical values can stand only once. Like-named read-outs stand apart in the source and are kept apart here.

Key:
[1] = Pharmacokinetic screening in dogs, oral administration, plasma LC-MS/MS; conditions: for LC/MS analysis, plasma level at time 0 / LC/MS analysis, plasma level at time 15 / LC/MS analysis, plasma level at time 30 / LC/MS analysis, plasma level at time 60 / LC/MS analysis, plasma level at time 120 / LC/MS analysis, plasma level at time 180 / LC/MS analysis, plasma level at time 240 / LC/MS analysis, plasma level at time 300 / LC/MS analysis, plasma level at time 360 / LC/MS analysis, plasma level at time 480 / LC/MS analysis, plasma level at time 1440: single oral dose (0.3 mg/kg per FIG. 1); for AUC: dog, plasma, po; for AUCINF_D_pred: dose-normalised
[2] = target: human sEH (Homo sapiens (Human), UniProt P34913); assay: Inhibition of human soluble epoxide hydrolase (IC50; one of three substrate methods); format: biochemical;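 note: enzyme expressed in baculovirus and affinity-purified, assays run in triplicate, with substrate and read-out differing among the three methods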
Chain of human sEH (P34913 whole entry): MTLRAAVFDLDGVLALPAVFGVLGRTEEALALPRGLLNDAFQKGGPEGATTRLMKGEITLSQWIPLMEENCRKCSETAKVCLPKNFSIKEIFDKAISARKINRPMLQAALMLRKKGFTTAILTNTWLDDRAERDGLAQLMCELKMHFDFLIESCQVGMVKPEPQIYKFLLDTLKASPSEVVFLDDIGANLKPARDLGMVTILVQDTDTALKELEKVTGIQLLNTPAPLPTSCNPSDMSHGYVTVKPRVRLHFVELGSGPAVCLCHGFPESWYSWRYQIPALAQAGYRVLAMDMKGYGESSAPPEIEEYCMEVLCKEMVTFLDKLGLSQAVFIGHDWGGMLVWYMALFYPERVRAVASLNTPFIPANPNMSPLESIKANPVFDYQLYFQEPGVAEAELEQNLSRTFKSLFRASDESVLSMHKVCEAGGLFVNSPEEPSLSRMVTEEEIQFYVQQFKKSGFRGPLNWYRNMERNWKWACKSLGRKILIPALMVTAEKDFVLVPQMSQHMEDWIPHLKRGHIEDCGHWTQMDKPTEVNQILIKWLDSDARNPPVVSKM

[3] = Solubility in oil of the dosing preparation (compound in Crisco); format: physicochemical; conditions: appearance in oil, in parentheses after compound number
Text: The dogs are fed immediately thereafter.

## O=C(NCC1CCN(C(=O)c2ccccc2)CC1)NC12CC3CC(CC(C3)C1)C2 [Compound 1121, N-((1-benzoylpiperidin-4-yl)methyl)-N′-(adamant-1-yl)urea]
[1]; dogs, time 0 min
  LC/MS analysis, plasma level at time 0: 0.00
[1]; dogs, time 15 min
  LC/MS analysis, plasma level at time 15: 4.86
[1]; dogs, time 30 min
  LC/MS analysis, plasma level at time 30: 3.81
[1]; dogs, time 60 min
  LC/MS analysis, plasma level at time 60: 1.98
[1]; dogs, time 120 min
  LC/MS analysis, plasma level at time 120: 0.42
[1]; dogs, time 180 min
  LC/MS analysis, plasma level at time 180: 0.16
[1]; dogs, time 240 min
  LC/MS analysis, plasma level at time 240: 0.06
[1]; dogs, time 300 min
  LC/MS analysis, plasma level at time 300: 0.05
[1]; dogs, time 360 min
  LC/MS analysis, plasma level at time 360: 0.03
[1]; dogs, time 480 min
  LC/MS analysis, plasma level at time 480: 0.03
[1]; dogs, time 1440 min
  LC/MS analysis, plasma level at time 1440: 0.04
[2]; recombinant human sEH
  IC50: 3.2 nM
[3]
  solubility in oil: 1121 (Not dissolved)

## CC(=O)N1CCC(NC(=O)NC23CC4CC(CC(C4)C2)C3)CC1 [Compound 1153, N-(1-acetylpiperidin-4-yl)-N′-(adamant-1-yl)urea]
[1]; 0.3 mg/kg
  AUC: 0.597 µM·h
[1]; dogs, oral, 0.1 mg/kg, time 0 min
  plasma level, in solution at 0.1 mg/kg dose, time 0: 0.31
[1]; dogs, oral, 0.1 mg/kg, time 15 min
  plasma level, in solution at 0.1 mg/kg dose, time 15: 5.33
[1]; dogs, oral, 0.1 mg/kg, time 30 min
  plasma level, in solution at 0.1 mg/kg dose, time 30: 19.59
[1]; dogs, oral, 0.1 mg/kg, time 60 min
  plasma level, in solution at 0.1 mg/kg dose, time 60: 56.74
[1]; dogs, oral, 0.1 mg/kg, time 120 min
  plasma level, in solution at 0.1 mg/kg dose, time 120: 106.43
[1]; dogs, oral, 0.1 mg/kg, time 180 min
  plasma level, in solution at 0.1 mg/kg dose, time 180: 100.94
[1]; dogs, oral, 0.1 mg/kg, time 240 min
  plasma level, in solution at 0.1 mg/kg dose, time 240: 75.71
[1]; dogs, oral, 0.1 mg/kg, time 300 min
  plasma level, in solution at 0.1 mg/kg dose, time 300: 44.51
[1]; dogs, oral, 0.1 mg/kg, time 360 min
  plasma level, in solution at 0.1 mg/kg dose, time 360: 29.15
[1]; dogs, oral, 0.1 mg/kg, time 480 min
  plasma level, in solution at 0.1 mg/kg dose, time 480: 13.01
[1]; dogs, oral, 0.1 mg/kg, time 1440 min
  plasma level, in solution at 0.1 mg/kg dose, time 1440: 0.00
[1]; dogs, oral, 0.3 mg/kg, time 0 min
  plasma level, in solution at 0.3 mg/kg dose, time 0: 0.00
[1]; dogs, oral, 0.3 mg/kg, time 15 min
  plasma level, in solution at 0.3 mg/kg dose, time 15: 288.97
[1]; dogs, oral, 0.3 mg/kg, time 30 min
  plasma level, in solution at 0.3 mg/kg dose, time 30: 276.16
[1]; dogs, oral, 0.3 mg/kg, time 60 min
  plasma level, in solution at 0.3 mg/kg dose, time 60: 241.03
[1]; dogs, oral, 0.3 mg/kg, time 120 min
  plasma level, in solution at 0.3 mg/kg dose, time 120: 107.19
[1]; dogs, oral, 0.3 mg/kg, time 180 min
  plasma level, in solution at 0.3 mg/kg dose, time 180: 56.41
[1]; dogs, oral, 0.3 mg/kg, time 240 min
  plasma level, in solution at 0.3 mg/kg dose, time 240: 26.42
[1]; dogs, oral, 0.3 mg/kg, time 300 min
  plasma level, in solution at 0.3 mg/kg dose, time 300: 20.81
[1]; dogs, oral, 0.3 mg/kg, time 360 min
  plasma level, in solution at 0.3 mg/kg dose, time 360: 10.10
[1]; dogs, oral, 0.3 mg/kg, time 480 min
  plasma level, in solution at 0.3 mg/kg dose, time 480: 4.66
[1]; dogs, oral, 0.3 mg/kg, time 1440 min
  plasma level, in solution at 0.3 mg/kg dose, time 1440: 0.00
[1]; dogs, oral
  AUCINF_D_pred: 119214 kg·nM·min/mg
[1]; dogs, time 0 min
  LC/MS analysis, plasma level at time 0: 0.00
[1]; dogs, time 15 min
  LC/MS analysis, plasma level at time 15: 288.97
[1]; dogs, time 30 min
  LC/MS analysis, plasma level at time 30: 276.16
[1]; dogs, time 60 min
  LC/MS analysis, plasma level at time 60: 2411.03
[1]; dogs, time 120 min
  LC/MS analysis, plasma level at time 120: 107.19
[1]; dogs, time 180 min
  LC/MS analysis, plasma level at time 180: 56.41
[1]; dogs, time 240 min
  LC/MS analysis, plasma level at time 240: 26.42
[1]; dogs, time 300 min
  LC/MS analysis, plasma level at time 300: 20.81
[1]; dogs, time 360 min
  LC/MS analysis, plasma level at time 360: 10.10
[1]; dogs, time 480 min
  LC/MS analysis, plasma level at time 480: 4.66
[1]; dogs, time 1440 min
  LC/MS analysis, plasma level at time 1440: 0.00
[3]
  solubility in oil: 1153 (Opaque)

## CCCC(=O)N1CCC(NC(=O)NC23CC4CC(CC(C4)C2)C3)CC1 [Compound 1157, N-(1-butyrylpiperidin-4-yl)-N′-(adamant-1-yl)urea]
[1]; 0.3 mg/kg
  AUC: 0.0367 µM·h
[1]; dogs, oral
  AUCINF_D_pred: 7187 kg·nM·min/mg
[1]; dogs, time 0 min
  LC/MS analysis, plasma level at time 0: 0.00
[1]; dogs, time 15 min
  LC/MS analysis, plasma level at time 15: 0.58
[1]; dogs, time 30 min
  LC/MS analysis, plasma level at time 30: 5.18
[1]; dogs, time 60 min
  LC/MS analysis, plasma level at time 60: 7.77
[1]; dogs, time 120 min
  LC/MS analysis, plasma level at time 120: 9.50
[1]; dogs, time 180 min
  LC/MS analysis, plasma level at time 180: 7.05
[1]; dogs, time 240 min
  LC/MS analysis, plasma level at time 240: 4.60
[1]; dogs, time 300 min
  LC/MS analysis, plasma level at time 300: 2.45
[1]; dogs, time 360 min
  LC/MS analysis, plasma level at time 360: 2.45
[1]; dogs, time 480 min
  LC/MS analysis, plasma level at time 480: 0.86
[1]; dogs, time 1440 min
  LC/MS analysis, plasma level at time 1440: 0.00
[2]
  IC50: 2.6 nM and 2.64 nM
[3]
  solubility in oil: 1157 (Opaque)

## O=C(NC1CCN(C(=O)c2ccccc2)CC1)NC12CC3CC(CC(C3)C1)C2 [Compound 1159, N-(1-benzoylpiperidin-4-yl)-N′-(adamant-1-yl)urea]
[1]; dogs, time 0 min
  LC/MS analysis, plasma level at time 0: 0.00
[1]; dogs, time 15 min
  LC/MS analysis, plasma level at time 15: 7.26
[1]; dogs, time 30 min
  LC/MS analysis, plasma level at time 30: 7.82
[1]; dogs, time 60 min
  LC/MS analysis, plasma level at time 60: 4.58
[1]; dogs, time 120 min
  LC/MS analysis, plasma level at time 120: 1.39
[1]; dogs, time 180 min
  LC/MS analysis, plasma level at time 180: 0.60
[1]; dogs, time 240 min
  LC/MS analysis, plasma level at time 240: 0.00
[1]; dogs, time 300 min
  LC/MS analysis, plasma level at time 300: 0.00
[1]; dogs, time 360 min
  LC/MS analysis, plasma level at time 360: 0.00
[1]; dogs, time 480 min
  LC/MS analysis, plasma level at time 480: 0.00
[1]; dogs, time 1440 min
  LC/MS analysis, plasma level at time 1440: 0.00
[2]; recombinant human sEH
  IC50: 1.3 nM
[3]
  solubility in oil: 1159 (Opaque)

## CCC(=O)N1CCC(NC(=O)NC23CC4CC(CC(C4)C2)C3)CC1 [Compound 1163, N-(1-propionylpiperidin-4-yl)-N′-(adamant-1-yl)urea]
[1]; 0.3 mg/kg
  AUC: 0.0933 µM·h
[1]; dogs, oral
  AUCINF_D_pred: 18504 kg·nM·min/mg
[1]; dogs, time 0 min
  LC/MS analysis, plasma level at time 0: 0.00
[1]; dogs, time 15 min
  LC/MS analysis, plasma level at time 15: 5.70
[1]; dogs, time 30 min
  LC/MS analysis, plasma level at time 30: 16.05
[1]; dogs, time 60 min
  LC/MS analysis, plasma level at time 60: 31.79
[1]; dogs, time 120 min
  LC/MS analysis, plasma level at time 120: 24.00
[1]; dogs, time 180 min
  LC/MS analysis, plasma level at time 180: 14.55
[1]; dogs, time 240 min
  LC/MS analysis, plasma level at time 240: 10.05
[1]; dogs, time 300 min
  LC/MS analysis, plasma level at time 300: 7.20
[1]; dogs, time 360 min
  LC/MS analysis, plasma level at time 360: 4.95
[1]; dogs, time 480 min
  LC/MS analysis, plasma level at time 480: 1.50
[1]; dogs, time 1440 min
  LC/MS analysis, plasma level at time 1440: 0.00
[2]
  IC50: 3.19 nM
[3]
  solubility in oil: 1163 (Opaque)

## O=C(NC1CCN(C(=O)c2ccccn2)CC1)NC12CC3CC(CC(C3)C1)C2 [Compound 1201, N-(1-(Pyridine-2-carbonyl)piperidin-4-yl)-N′-(adamant-1-yl)urea]
[1]; 0.3 mg/kg
  AUC: 0.08 µM·h
[1]; dogs, oral
  AUCINF_D_pred: 16100 kg·nM·min/mg
[1]; dogs, time 0 min
  LC/MS analysis, plasma level at time 0: 0.00
[1]; dogs, time 15 min
  LC/MS analysis, plasma level at time 15: 9.19
[1]; dogs, time 30 min
  LC/MS analysis, plasma level at time 30: 32.65
[1]; dogs, time 60 min
  LC/MS analysis, plasma level at time 60: 42.48
[1]; dogs, time 120 min
  LC/MS analysis, plasma level at time 120: 21.09
[1]; dogs, time 180 min
  LC/MS analysis, plasma level at time 180: 7.15
[1]; dogs, time 240 min
  LC/MS analysis, plasma level at time 240: 3.16
[1]; dogs, time 300 min
  LC/MS analysis, plasma level at time 300: 1.72
[1]; dogs, time 360 min
  LC/MS analysis, plasma level at time 360: 0.00
[1]; dogs, time 480 min
  LC/MS analysis, plasma level at time 480: 0.00
[1]; dogs, time 1440 min
  LC/MS analysis, plasma level at time 1440: 0.00
[2]; recombinant human sEH
  IC50: 1.2 nM
[3]
  solubility in oil: 1201 (Suspension)

## CC(=O)N1CCC(NC(=O)Nc2ccc(OC(F)(F)F)cc2)CC1 [Compound 1555, 1-(1-Acetyl-piperidin-4-yl)-3-(4-trifluoromethoxy-phenyl)-urea]
[1]; 0.3 mg/kg
  AUC: 6.5 µM·h
[1]; dogs, oral
  AUCINF_D_pred: 13002825 kg·nM·min/mg
[1]; dogs, time 0 min
  LC/MS analysis, plasma level at time 0: 0.00
[1]; dogs, time 15 min
  LC/MS analysis, plasma level at time 15: 16.07
[1]; dogs, time 30 min
  LC/MS analysis, plasma level at time 30: 45.76
[1]; dogs, time 60 min
  LC/MS analysis, plasma level at time 60: 100.35
[1]; dogs, time 120 min
  LC/MS analysis, plasma level at time 120: 216.91
[1]; dogs, time 180 min
  LC/MS analysis, plasma level at time 180: 260.79
[1]; dogs, time 240 min
  LC/MS analysis, plasma level at time 240: 268.90
[1]; dogs, time 300 min
  LC/MS analysis, plasma level at time 300: 302.64
[1]; dogs, time 480 min
  LC/MS analysis, plasma level at time 480: 320.45
[1]; dogs, time 1440 min
  LC/MS analysis, plasma level at time 1440: 266.29
[3]
  solubility in oil: 1555 (Opaque)
